The record followed here is US20100249138A1, “MPZP: A SMALL MOLECULE CORTICOTROPIN-RELEASING FACTOR TYPE 1 RECEPTOR (CRF1) ANTOGONIST” (priority 2007, published 2010).

Assay [1] has as its system animal model of alcohol dependence. Nature of the assay: Operant alcohol and water self-administration in alcohol vapor-dependent and nondependent rats (Study 2). The assay is classed as in vivo, rat. To be noted: for alcohol self-administration (g/kg intake): 0, 5, 10, 20 mg/kg. From the text:
The effect of MPZP on drinking behavior was studied in an established animal model of alcohol dependence. […] (2006) 26:11324-11332; see also Roberts et al., Alcohol Clin. Exp. Res. (1996) 20:1289-1298; Overstreet et al., Alcohol Clin. Exp. Res. (2002) 26:1259-1268; Rimondini et al., FASEB J. (2002) 16:27-35; Valdez et al., Alcohol Clin. Exp. Res. (2002) 26:1494-1501 for related models].
Animals were permitted to self-administer alcohol or water orally in a concurrent, two-lever, free-choice contingency. A continuous reinforcement (fixed ratio-1) schedule was used in which each lever press was reinforced. Animals acquired alcohol self-administration using a variation of the previously described saccharin fading free-choice operant conditioning protocol [Samson et al., Alcohol Clin. Exp. Res. (1986) 10:436-442].
The present procedure culminates in pharmacologically relevant levels of alcohol self-administration, as defined by blood alcohol levels (BALs), in nondependent animals with limited access to alcohol over a 6-week period [Roberts et al., Alcohol Clin. Exp. Res. (1999) 23:1151-1157]. The modified procedure in the present study utilized a sweetened solution (“supersac”) containing 3% glucose and 0.125% saccharin (Sigma, St. Louis, Mo.) instead of water restriction and 0.2% saccharin to initiate and maintain operant responding [Funk et al., J. Neurosci. (2006) 26:11324-11332].
Animals respond for the sweetened solution within 1-2 training sessions, making water restriction unnecessary. Operant sessions during training were conducted 5 days per week between 0900 and 1500 (lights on at 0600). Operant sessions were 30 minutes in duration, except during the initial days of training in which sessions lasted up to 2 hours to permit acquisition of responding for the sweetened solution. Alcohol (10% w/v) then was added to the sweetened solution, and once mean responding stabilized (around one week) the glucose was removed from the solution, leaving only 0.125% saccharin and 10% w/v ethanol.
Animals then were maintained on 10% w/v ethanol for at least 3 weeks, and stable responders (±25% across three consecutive sessions) were evenly divided into two groups matched for baseline responding and exposed to intermittent ethanol vapors (dependent) or air (nondependent) as described below. A total of 16 rats (dependent, n=8; nondependent, n=8) were used for this experiment.
The self-administration system comprised test chambers (Coulbourn Instruments, Allentown, Pa.) contained within wooden sound-attenuated ventilated cubicles. The test chambers were equipped with two retractable levers located 4 cm above the grid floor and 4.5 cm to either side of a small stainless steel receptacle containing two drinking cups. […] Tap water was delivered to one dish, and the experimental solution (e.g., sweetened solution or alcohol) was delivered to the other dish. Fluid delivery and recording of operant self-administration were controlled by a computer. Lever presses were not recorded during the 0.5 second inter-response time-out interval when solution was being delivered.
A recent modification of the alcohol dependence model was made to reflect the natural progression of alcohol dependence in which alcohol exposure occurs in a series of extended exposures followed by periods of withdrawal [O′Dell et al., Alcohol Clin. Exp. Res. (2004) 28:1676-1682]. Chronic exposure to intermittent alcohol vapor exposure elicits even higher alcohol self-administration than continuous vapor (Ibid.), and the intermittent procedure therefore was used to induce dependence in trained animals in the present study. Vapors were delivered on a 14 hours on/10 hours off schedule for 4 weeks before post-vapor testing began.
Beginning 4 weeks after the onset of vapor exposure, post-vapor alcohol self-administration testing was conducted 2 times per week during acute withdrawal (6-8 hours after cessation of daily vapor exposure). […]

The test system of assay [2] is nicotine self-administration. Nature of the assay: Nicotine self-administration, extended (23 hour) or limited (1 hour) access, nicotine deprivation effect. The assay is classed as in vivo, rat. The procedure:
The apparatus and detailed procedures for both intravenous catheterization and self-administration of nicotine have been described previously [O'dell et al., Pharmacol. Biochem. Behay. (2007) 86:346-353]. Adult male Wistar rats (280 to 330 g) were first allowed to nose-poke for food and water in 23 hours sessions prior to and after recovery from surgical implantation of jugular catheters. Following acquisition of these operant responses, rats were allowed to self-administer nicotine (0.03 mg/kg/100 μl/1 s, free base, fixed ratio=1 lever-response, time out=20 seconds) under different paradigms. Rats were allowed to acquire nicotine self-administration during daily 1 hour, “short-access” sessions (ShA, n=10) for at least 10 days. The CRF1 antagonist MPZP (0, 5, 10, 20 mg/kg) was then administered using a Latin square design, with 1-2 intervening treatment-free days. After completion of Study B, rats were allowed to self-administer nicotine during daily 23 hours, “long-access” sessions (LgA, n=8) for at least 10 days. Then, they were allowed to respond on a lever for nicotine self-administration in 4 four-day cycles, each separated by three intervening days of abstinence in their home cage. MPZP was administered before the first session following each cycle of abstinence using a Latin square design.

SMILES strings stand for the structures. “Also recorded” adds a separate entry of the source.

Regarding `COCCN(CCOC)c1cc(C)nc2c(-c3ccc(OC)cc3C)c(C)nn12` [MPZP, N,N-bis(2-methoxyethyl)-3-(4-methoxy-2-methylphenyl)-2,5-dimethyl-pyrazolo[1,5-a]pyrimidin-7-amine], the ED50 in assay [1] (Rattus norvegicus, sc, dependent animals, acute withdrawal (6-8 hours), s.c. 1 hour before 30 minute session, read-out: ED50, reduction of alcohol self-administration (sigmoidal dose-response fit)) stood at 10.7 mg/kg. Moreover, the “alcohol self-administration (g/kg intake)” value in assay [1] (dependent animals, 20 mg/kg vs vehicle) is given as “dose-dependently reduced; also recorded: significantly reduced”; in assay [1] (nondependent animals) it was “not nondependent animals; also recorded: no effect”. Moreover, the alcohol responses in assay [1] (dependent animals, 5 mg/kg) was determined as 72±14; in assay [1] (dependent animals, 10 mg/kg), 70±7; in assay [1] (dependent animals, 20 mg/kg) it was 47±7; in assay [1] (nondependent animals, 5 mg/kg), 37±5; in assay [1] (nondependent animals, 10 mg/kg), 32±5; in assay [1] (nondependent animals, 20 mg/kg), 33±4. Moreover, the “water self-administration (responses)” value in assay [1] (dependent or nondependent animals) is on record as “no effect”. The “nicotine intake following abstinence” value in assay [2] (extended access (23 hour), 0, 5, 10, 20 mg/kg s.c., vs vehicle-treated) is “dose-dependently decreased”. In addition, the “baseline nicotine self-administration responding” value in assay [2] (limited access to nicotine (1 hour), s.c.) is recorded as “had no effect; also recorded: lack of effect”.
